Results reported in PMC4832822, “Investigating the Influence of (Deoxy)fluorination on the Lipophilicity of Non‐UV‐Active Fluorinated Alkanols and Carbohydrates by a New log P Determination Method” (Angewandte Chemie (International Ed. in English), 2015).
Several values for one entry are separate records, joined by “and”; a condition that tells them apart may be missing. Equal entries are not always repeated.

Key:
[1] = milogP calculated using Molinspiration Cheminformatics; conditions: Table SI14
[2] = log P determination by 19F NMR shake-flask method with internal fluorinated reference (octanol/water)
[3] = octanol/water, Average logP, 25 °C, reference TFE (+0.36)
[4] = octanol/water, error (mean logP to three decimals), reference TFE (+0.36)
[5] = octanol/water, logP, single experiment, reference TFE (+0.36)
[6] = single experiment, reference TFE (+0.36)
[7] = octanol/water, logP, 19F NMR, 25 °C, average value
[8] = error (mean logP to three decimals)
[9] = octanol/water, Average logP, reference 4,4,4-trifluoro-1-butanol (TB, +0.91EXP)
[10] = octanol/water, error (mean logP to three decimals), reference TB (+0.91EXP)
[11] = octanol/water, logP, single experiment, reference 4,4,4-trifluoro-1-butanol (TB, +0.91EXP)
[12] = octanol/water, Average logP, 25 °C, reference FE (-0.75)
[13] = octanol/water, error (mean logP to three decimals), reference FE (-0.75)
[14] = single experiment, reference FE (-0.75)

SMILES	ΔlogP (milogP vs logP exp) [1]	logP [2, 3]	logP [2, 4]	logP [2, 5]	logP [2, 7]	also measured
C[C@H](O)C[C@@H](C)F [compound 26]	+0.49	0.48	0.477	0.476	–	logP [2, 6]: +0.476
C[C@H](O)C[C@H](C)F [compound 27]	+0.40	0.57	0.569	0.57	0.57	–
CC(O)CC(C)(F)F (stereo not shown) [compound 28]	+0.67	0.66	0.662	0.659	–	–
CCCC(O)C(F)(F)F (stereo not shown) [compound 29, 1,1,1-trifluoropentan-2-ol]	–	1.82	1.82	1.83	–	–
OCCCCCF [compound 30, 5-fluoro-1-pentanol]	–	–	–	–	–	logP (physchem; Average logP): 0.52; logP (physchem; [8]): 0.524; logP (physchem; logP): 0.524
CC(F)CCCO (stereo not shown) [compound 31, 4-fluoropentan-1-ol]	–	0.52	0.522	0.517	–	–
CC(F)(F)CCCO [compound 32, 4,4-difluoropentan-1-ol]	–	0.71	0.708	0.712	–	logP [2, 6]: +0.712
CCCC(F)CO (stereo not shown) [compound 33, 2-fluoropentan-1-ol]	–	0.87	0.868	0.872	–	logP ([2]; multiple acquisitions of one sample (Table SI7), single acquisition, reference 2,2,2-trifluoroethanol): 0.5206 and 0.5160 and 0.5224 and 0.5294 and 0.5210 and 0.5213; logP ([2]; multiple reprocessing of one FID (Table SI8), single reprocessing): 0.5205 and 0.5167 and 0.5166 and 0.5215 and 0.5186; logP ([2]; octanol/water, logP Average, seven acquisitions (Table SI7)): 0.521; logP ([2]; octanol/water, logP Average, seven reprocessings (Table SI8)): 0.518; logP ([2]; octanol/water, logP, multiple acquisitions of one sample (Table SI7), single acquisition, reference 2,2,2-trifluoroethanol): 0.517; logP ([2]; octanol/water, logP, multiple reprocessing of one FID (Table SI8), single reprocessing): 0.513
OCCCC(F)(F)C(F)F [compound 34, 4,4,5,5-tetrafluoropentan-1-ol]	–	–	–	–	–	logP (physchem; Average logP): 0.97; logP (physchem; [8]): 0.974; logP (physchem; logP): 0.971
OCCCC(F)(F)C(F)(F)F [compound 36]	–	–	–	–	–	logP (physchem; Average logP): 1.72; logP (physchem; [8]): 1.72; logP (physchem; logP): 1.73
CC[C@H](O)C[C@H](F)CC [compound 37]	+0.40	–	–	–	1.58	logP [2, 9]: 1.58; logP [2, 10]: 1.58; logP [2, 11]: 1.58
CC[C@H](O)C[C@@H](F)CC [compound 38]	+0.27	–	–	–	1.71	logP [2, 9]: 1.71; logP [2, 10]: 1.71; logP [2, 11]: 1.69
OC[C@H](F)[C@@H](F)CO [compound 39]	+0.63	–	–	–	–	logP [2, 12]: -1.01; logP [2, 13]: -1.01; logP [2, 14]: -1.006 and -1.012
OC[C@@H](F)[C@@H](F)CO [compound 40]	+0.59	–	–	–	–	logP [2, 12]: -0.97; logP ([2]; octanol/water, Average logP, internal validation, reference -1.01EXP): -0.98; logP ([2]; octanol/water, error (mean logP to three decimals), internal validation, reference -1.01EXP): -0.98; logP [2, 13]: -0.968; logP ([2]; single experiment, internal validation, reference -1.01EXP): -0.981 and -0.984 and -0.975; logP [2, 14]: -0.957
OCC(F)(F)C(F)(F)CO [compound 41]	–	–	–	–	–	logP (physchem; Average logP): -0.11; logP (physchem; [8]): -0.109

Now from value to molecule, other results behind:

ΔlogP (milogP vs logP exp) [1]	logP [2, 3]	logP [2, 4]	logP [2, 5]	logP [2, 7]	SMILES	also measured
–	–	–	–	2.23	CC(C)(C)C1CCC(O)CC1F (stereo not shown) [compound 45]	–
+0.32	–	–	–	-2.47	O=C[C@H](O)[C@@H](F)[C@@H](O)[C@H](O)CO [compound 46, 3-Fluoro-3-deoxy-D-galactose]	–
+0.44	–	–	–	-2.37	O=C[C@H](F)[C@@H](O)[C@@H](O)[C@H](O)CO [compound 47, 2-Fluoro-2-deoxy-D-galactose]	–
+0.65	–	–	–	-2.36	O=C[C@H](O)[C@@H](O)[C@H](O)[C@H](O)CF [compound 48, 6-Fluoro-6-deoxy-D-glucose]	–
+0.28	–	–	–	-2.21	O=C[C@H](F)[C@@H](O)[C@H](O)[C@H](O)CO [compound 49, 2-Fluoro-2-deoxy-D-glucose]	–
–	–	–	–	-2.11	O=C[C@@H](F)[C@@H](O)[C@H](O)[C@H](O)CO [compound 50, 2-Fluoro-2-deoxy-D-mannose]	–
–	–	–	–	-1.45	OC[C@H]1OC(O)C[C@@H](F)[C@@H]1O (stereo partly drawn) [compound 51, 2,3-Dideoxy-3-fluoro-D-glucopyranose]	–
–	–	–	–	-1.11	OC[C@H]1OC(O)[C@H](F)[C@@H](F)[C@@H]1O (stereo partly drawn) [compound 52, 2,3-Dideoxy-2,3-difluoro-D-glucopyranose]	logP ([2]; octanol/water, log P units more lipophilic than Glc, relative to glucose): ~2.1; logP ([2]; octanol/water, logP, single experiment, reference FE (-0.75)): -1.11
+0.07	-0.58	-0.576	–	–	OC[C@H]1OC(O)C(F)(F)C(F)(F)[C@H]1O (stereo partly drawn) [compound 53, 2,3-Dideoxy-2,2,3,3-tetrafluoro-D-threo-hexopyranose]	logP [2, 6]: -0.574 and -0.573 and -0.583
–	-0.32	–	-0.316	–	OC[C@H]1OC(O)C(F)(F)C(F)(F)[C@@H]1O (stereo partly drawn) [compound 54, 2,3-Dideoxy-2,2,3,3-tetrafluoro-D-erythro-hexopyranose]	–
